Data reported in patent publication US20130203649A1, “INHIBITORS OF TLR SIGNALING BY TARGETING TIR DOMAIN INTERFACES” (UNIVERSITY OF MARYLAND, BALTIMORE, priority 2012, published 2013).
No end group written: not given here.

Assays:
[1] = tested on: TLR4/MyD88; test: LPS-induced TLR4/MyD88 coimmunoprecipitation in mouse peritoneal macrophages; format: cell-based; conditions: 20 μM peptide 30 min before LPS 100 ng/ml
Description: (§1) FIG. 9. TM4, TM6, and TR6 block adapter recruitment to TLR4. (A) A total of 6×10^5 HEK293T cells was transfected with 1 μg pcDNA3.1-mTLR4-Cer and pEF-BOS-mTRAM-HA. Twenty-four hours posttransfection, the cells were treated with 20 μM of each peptide for 1 h. Cell lysates were immunoprecipitated with anti-GFP Ab and blotted with anti-HA-HRP. (B) A total of 2×10^6 mouse peritoneal macrophages was pretreated with 20 μM of each peptide for 30 min prior to stimulation with 100 ng/ml LPS. Cell extracts were obtained 30 min after LPS treatment, immunoprecipitated with goat anti-TLR4 Ab, and blotted with rabbit anti-MyD88 or anti-TLR4 Ab. Data are representative of three independent experiments.
(§2) HEK293T cells were transfected with indicated plasmids using Superfect Transfection Reagent (Qiagen). […] Protein was quantified using Bio-Rad protein quantification kit. Equal amount of protein was loaded and analyzed by 10% SDS-PAGE and immunoblotting. The cell extracts containing equal amount of protein were incubated with 1 μg Ab for 2 h, followed by 4-h incubation with 25 μl protein G agarose beads (Roche); the beads were then washed four times with lysis buffer, boiled in […] sample loading buffer, and analyzed by immunoblotting. […]

[2] = target: T1, TLR4/TRAM (Mus musculus, UniProt Q9QUK6); test: TLR4/TRAM coimmunoprecipitation in transfected HEK293T cells; format: cell-based; conditions: 20 μM peptide, 1 h
T1 construct: TLR4-Cer expression vector was described earlier (1); expressed in transfected cells; host or cells: HEK293T
T1 sequence (Q9QUK6 26-835): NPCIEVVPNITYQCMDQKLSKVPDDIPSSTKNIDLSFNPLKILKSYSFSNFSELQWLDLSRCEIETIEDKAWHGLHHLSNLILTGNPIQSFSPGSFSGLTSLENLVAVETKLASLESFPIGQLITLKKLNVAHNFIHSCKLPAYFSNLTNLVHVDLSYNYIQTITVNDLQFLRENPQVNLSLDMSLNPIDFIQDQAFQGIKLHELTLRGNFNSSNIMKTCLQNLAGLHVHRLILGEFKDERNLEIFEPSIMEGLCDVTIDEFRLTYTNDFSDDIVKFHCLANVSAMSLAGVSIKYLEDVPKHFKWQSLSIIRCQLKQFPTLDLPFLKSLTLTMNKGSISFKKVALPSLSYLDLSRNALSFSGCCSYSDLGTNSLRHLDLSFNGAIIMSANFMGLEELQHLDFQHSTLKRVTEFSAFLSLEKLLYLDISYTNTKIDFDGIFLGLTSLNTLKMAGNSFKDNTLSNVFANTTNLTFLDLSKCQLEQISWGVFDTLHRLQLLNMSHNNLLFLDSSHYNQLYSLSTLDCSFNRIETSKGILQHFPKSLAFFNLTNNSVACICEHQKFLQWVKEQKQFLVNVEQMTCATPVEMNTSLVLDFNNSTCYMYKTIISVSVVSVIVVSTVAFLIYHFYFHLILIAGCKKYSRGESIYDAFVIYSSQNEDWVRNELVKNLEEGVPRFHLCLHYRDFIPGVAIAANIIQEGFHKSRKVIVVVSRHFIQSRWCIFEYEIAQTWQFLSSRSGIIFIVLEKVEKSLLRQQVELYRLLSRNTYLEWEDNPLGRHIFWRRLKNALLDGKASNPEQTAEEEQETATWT
Description: as §1, §2

RQIKIWFQNRRMKWKKPGFLRDPWCKYQML [TR6]
LPS-induced TLR4/MyD88 association [1]: efficiently prevented
TLR4/TRAM coimmunoprecipitation [2]: inhibited TLR4/TRAM association, although less efficiently than TM6
